Measured values reported in US20020081661A1 (Synaptic Pharmaceutical Corporation, priority 1992, published 2002).
Where two headings read alike, the source gives them in different places.

Assays:
[1] = biological target: T1, rat 5-HT4 receptor S10-87 (CG-7) (Rattus norvegicus, UniProt Q62758); experiment: [3H]5-HT radioligand binding (saturation and displacement), membranes of Cos-7 cells transiently expressing rat S10-87 (CG-7)
Experimental: (§2) Membrane Preparation: Membranes were prepared from transiently transfected COS-7 cells which were grown to 100% confluence. The cells were washed twice with phosphate-buffered saline, scraped from the culture dishes into 5 ml of ice-cold phosphate-buffered saline, and centrifuged at 200×g for 5 min at 4′. The pellet was resuspended in 2.5 ml of ice-cold Tris buffer (20 mM Tris -HCl, pH 7.4 at 23°, 5 mM EDTA), and homogenized by a Wheaton tissue grinder. The lysate was subsequently centrifuged at 200×g for 5 min at 4° to pellet large fragments which were discarded. The supernatant was collected and centrifuged at 40,000×g for 20 min at 4°. The pellet resulting from this centrifugation was washed once in ice-cold Tris wash buffer and finally resuspended in a final buffer containing 50 mM Tris-HCl and 0.5 mM EDTA, pH 7.4 at 23°. Membrane preparations were kept on ice and utilized within two hr for the radioligand binding assays.
(§3) The binding profile of drugs in competition experiments was established using 7 concentrations of compound. Incubation times were 30 min for both saturation and displacement studies. […] Binding was initiated by the addition of 50 μl membrane homogenates (10-20 μg). The reaction was terminated by rapid filtration through presoaked (0.5% polyethyleneimine) filters using 48R Cell Brandel Harvester (Gaithersburg, Md.). Subsequently, filters were washed for 5 sec with ice cold buffer (50 mM Tris HCL, pH 7.4 at 4° C.), dried and placed into vials containing 2.5 ml of Readi-Safe (Beckman, Fullerton, Calif.), and radioactivity was measured using a Beckman LS 6500C liquid scintillation counter. […] Binding data were analyzed by computer-assisted nonlinear regression analysis (Accufit and Accucomp, Lundon Software, Chagrin Falls, Ohio).

[2] = biological target: T2, rat 5-HT4 (CG-7) receptor (Rattus norvegicus, UniProt Q62758); experiment: cAMP formation in intact Cos-7 cells transiently expressing CG-7; assay type: cell-based; details: for I. A. (intrinsic activity): CG-7, maximum response normalized to 5-HT maximum = 1.0; for agonist / antagonist character: CG-7, cAMP response; for effect on responses to 5-HT: CG-7, 10 μM
T2 construct: two individual full length cDNA clones, S10-87 and S10-95, were isolated; expressed in transfected cells; host or cells: COS-7 (transient, DEAE-dextran)
Experimental: (§1) Measurement of cAMP Formation: The transiently transfected Cos-7 cells were incubated in Dulbecco's modified Eagle's medium, 5 mM theophylline, 10 mM Hepes (4-[2-Hydroxyethyl]-1-piperazineethanesulfonic acid), 10 μM pargyline, and/or appropriate concentrations of antagonists for 20 minutes at 37° C., 5% CO2. […] The media was aspirated and the reaction stopped by the addition of 100 mM HCl. The plates were stored at 4° C. for 15 minutes, centrifuged for 5 minutes, 500×g to pellet cellular debris, and the supernatant aliquotted and stored at −20° C. prior to assessment of cAMP formation by radioimmunoassay (cAMP Radioimmunoassay kit, Advanced Magnetics, Cambridge, Mass.). Radioactivity was quantitated using a Packard COBRA Auto Gamma Counter equipped with data reduction software. Functional data was fitted to a four parameter logistic equation to obtain response parameters (EC50, Emax, nH; Inplot, GraphPad, San Diego, Calif.).

[3] = biological target: T3, rat 5-HT4 (CG-8) receptor (Rattus norvegicus, UniProt Q62758); experiment: cAMP formation in intact Cos-7 cells transiently expressing CG-8; assay type: cell-based; details: for I. A. (intrinsic activity): CG-8, maximum response normalized to 5-HT maximum = 1.0; for agonist / antagonist character: CG-8, cAMP response; for effect on responses to 5-HT: CG-8, 10 μM
T3 construct: two individual full length cDNA clones, S10-87 and S10-95, were isolated; expressed in transfected cells; host or cells: COS-7 (transient, DEAE-dextran)
Experimental: as §1

[4] = biological target: T4, human 5-HT4 receptor S10-95 (CG-17) (Homo sapiens, UniProt Q13639); experiment: [3H]5-HT displacement binding, human CG-17 clone; details: for fold higher affinity for the human CG-17 clone: human CG-17 compared with rat clones; for activity at the CG-17 clone: [3H]5-HT displacement, up to concentration of 1 μM
T4 construct: Isolation of the full length human S10-95 cDNA clone; expressed in transfected cells; host or cells: COS-7 (transient, DEAE-dextran)
Experimental: as §2, §3

[5] = biological target: T1, rat 5-HT4 receptor S10-87 (CG-7); experiment: [3H]GR113808 binding (saturation and displacement), COS-7 membranes, rat clone CG-7; parameters: two individual full length cDNA clones, S10-87 and S10-95, were isolated; expressed in transfected cells; host or cells: COS-7 (transient, DEAE-dextran); details: for effect on [3H]GR113808 binding: CG-7, concentrations up to 1 μM
Experimental: as §2
(§4) The binding profile of drugs in competition experiments was established using 10-12 concentrations of compound. Incubation times were 30 min for both saturation and displacement studies.

[6] = biological target: T5, rat 5-HT4 receptor S10-95 (CG-8) (Rattus norvegicus, UniProt Q62758); experiment: [3H]GR113808 binding (saturation and displacement), COS-7 membranes, rat clone CG-8; parameters: two individual full length cDNA clones, S10-87 and S10-95, were isolated; expressed in transfected cells; host or cells: COS-7 (transient, DEAE-dextran); details: for effect on [3H]GR113808 binding: CG-8, concentrations up to 1 μM
Experimental: as §2, §4

[7] = biological target: T6, 5-HT4 receptor, rat oesophagus (Rattus norvegicus, UniProt Q62758); details: Grossmann et al., 1993; cited from earlier work
T6 construct: host or cells: rat oesophagus

[8] = biological target: T5, rat 5-HT4 receptor S10-95 (CG-8); experiment: biochemical
Experimental: For transient expression, Cos-7 cells were transfected by the DEAE-Dextran method, using 1 μg of DNA /10^6 cells (Warden, D. and H. V. Thorne, 1968).
Membrane Preparation: Membranes were prepared from transiently transfected COS-7 cells which were grown to 100% confluence. The cells were washed twice with phosphate-buffered saline, scraped from the culture dishes into 5 ml of ice-cold phosphate-buffered saline, and centrifuged at 200×g for 5 min at 4′. The pellet was resuspended in 2.5 ml of ice-cold Tris buffer (20 mM Tris -HCl, pH 7.4 at 23°, 5 mM EDTA), and homogenized by a Wheaton tissue grinder. The lysate was subsequently centrifuged at 200×g for 5 min at 4° to pellet large fragments which were discarded. The supernatant was collected and centrifuged at 40,000×g for 20 min at 4°. The pellet resulting from this centrifugation was washed once in ice-cold Tris wash buffer and finally resuspended in a final buffer containing 50 mM Tris-HCl and 0.5 mM EDTA, pH 7.4 at 23°. Membrane preparations were kept on ice and utilized within two hr for the radioligand binding assays. Protein concentrations were determined by the method of Bradford (1976) using bovine serum albumin as the standard.
The binding profile of drugs in competition experiments was established using 7 concentrations of compound. Incubation times were 30 min for both saturation and displacement studies. […] Binding was initiated by the addition of 50 μl membrane homogenates (10-20 μg). The reaction was terminated by rapid filtration through presoaked (0.5% polyethyleneimine) filters using 48R Cell Brandel Harvester (Gaithersburg, Md.). Subsequently, filters were washed for 5 sec with ice cold buffer (50 mM Tris HCL, pH 7.4 at 4° C.), dried and placed into vials containing 2.5 ml of Readi-Safe (Beckman, Fullerton, Calif.), and radioactivity was measured using a Beckman LS 6500C liquid scintillation counter. […] Binding data were analyzed by computer-assisted nonlinear regression analysis (Accufit and Accucomp, Lundon Software, Chagrin Falls, Ohio). […]

[9] = biological target: T7, 5-HT4 receptors, guinea pig brain tissue (Cavia porcellus, UniProt O70528); details: Waeber et al., 1993, Grossmann et al.; cited from earlier work
T7 construct: host or cells: guinea pig brain tissue

[10] = biological target: T4, human 5-HT4 receptor S10-95 (CG-17); experiment: [3H]GR113808 saturation binding, human clone CG-17; details: human CG-17, [3H]GR113808 0.005-[…], preliminary; read-out: Kd (saturation analysis)
Experimental: as §2, §4

[11] = biological target: T8, 5-HT4 receptors, human brain (Homo sapiens, UniProt Q13639); details: Waeber et al. (1993); cited from earlier work
T8 construct: host or cells: human brain tissue

[12] = Affinity constants (Ki), CG-7, 10 nM [3H]5-HT, mean ± SEM, >1000 estimated from one point displacement at 1 uM
[13] = K1 (nM), CG-7, binding data using [3H]5-HT, Table 4
[14] = CG-7, stimulation of basal cAMP release
[15] = CG-8, stimulation of basal cAMP release
[16] = CG-7, 0.2-0.4 nM [3H]GR113808, single experiment, read-out: Affinity estimate K1
[17] = CG-7, stimulation of basal cAMP release, means ± S.E.M. of three experiments, read-out: EC50
[18] = CG-8, stimulation of basal cAMP release, means ± S.E.M. of three experiments, read-out: EC50
[19] = CG-8, 0.2-0.4 nM [3H]GR113808, single experiment, read-out: Affinity estimate K1
[20] = read-out: Ks (apparent dissociation constant of antagonist)

T5 sequence (Q62758 whole entry): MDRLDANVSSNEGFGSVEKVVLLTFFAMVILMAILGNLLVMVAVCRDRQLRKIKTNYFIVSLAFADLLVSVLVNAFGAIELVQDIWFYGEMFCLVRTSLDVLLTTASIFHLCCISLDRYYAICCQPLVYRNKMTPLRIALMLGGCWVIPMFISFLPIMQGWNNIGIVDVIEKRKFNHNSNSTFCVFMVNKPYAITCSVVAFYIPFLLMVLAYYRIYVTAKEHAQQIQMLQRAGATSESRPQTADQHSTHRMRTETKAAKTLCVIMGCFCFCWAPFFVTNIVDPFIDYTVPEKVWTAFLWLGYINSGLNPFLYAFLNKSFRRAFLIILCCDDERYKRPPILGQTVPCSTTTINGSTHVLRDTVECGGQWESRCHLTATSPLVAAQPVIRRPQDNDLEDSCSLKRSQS
T3 sequence (Q62758 whole entry): as above
T4 sequence (Q13639 whole entry): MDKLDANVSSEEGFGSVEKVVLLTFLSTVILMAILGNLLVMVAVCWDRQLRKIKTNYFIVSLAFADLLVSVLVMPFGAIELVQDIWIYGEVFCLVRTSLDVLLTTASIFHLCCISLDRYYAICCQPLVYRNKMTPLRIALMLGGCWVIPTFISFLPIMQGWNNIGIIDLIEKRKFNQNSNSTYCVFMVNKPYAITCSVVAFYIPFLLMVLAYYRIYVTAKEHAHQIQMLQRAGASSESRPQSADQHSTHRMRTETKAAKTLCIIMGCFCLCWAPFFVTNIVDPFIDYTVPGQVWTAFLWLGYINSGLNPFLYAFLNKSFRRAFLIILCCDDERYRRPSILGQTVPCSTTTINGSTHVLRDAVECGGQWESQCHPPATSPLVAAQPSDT
T2 sequence (Q62758 1-387 isoform Q62758-2): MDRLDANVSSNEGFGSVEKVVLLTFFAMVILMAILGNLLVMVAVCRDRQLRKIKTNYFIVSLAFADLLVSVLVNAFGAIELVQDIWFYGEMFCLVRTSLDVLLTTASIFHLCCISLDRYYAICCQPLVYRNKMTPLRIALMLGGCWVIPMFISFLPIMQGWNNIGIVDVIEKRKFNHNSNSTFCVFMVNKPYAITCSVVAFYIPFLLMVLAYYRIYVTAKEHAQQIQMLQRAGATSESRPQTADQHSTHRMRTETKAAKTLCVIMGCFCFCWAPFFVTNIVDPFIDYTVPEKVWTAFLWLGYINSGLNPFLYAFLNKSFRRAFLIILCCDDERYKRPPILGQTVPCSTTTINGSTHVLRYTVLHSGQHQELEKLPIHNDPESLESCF
T1 sequence (Q62758 1-387 isoform Q62758-2): as above
T6 sequence (Q62758 whole entry): as the sequence (Q62758 whole entry) above
T7 sequence (O70528 whole entry): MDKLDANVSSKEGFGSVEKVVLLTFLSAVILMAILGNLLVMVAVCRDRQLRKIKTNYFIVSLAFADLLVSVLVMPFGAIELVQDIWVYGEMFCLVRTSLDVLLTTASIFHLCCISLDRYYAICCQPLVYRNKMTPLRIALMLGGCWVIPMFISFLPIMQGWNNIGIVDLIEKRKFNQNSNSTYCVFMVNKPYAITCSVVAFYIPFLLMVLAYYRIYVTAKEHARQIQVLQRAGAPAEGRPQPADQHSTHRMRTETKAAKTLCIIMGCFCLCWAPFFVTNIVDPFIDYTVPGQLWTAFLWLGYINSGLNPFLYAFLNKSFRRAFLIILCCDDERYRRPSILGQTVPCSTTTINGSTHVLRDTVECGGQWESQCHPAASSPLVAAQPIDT
T8 sequence (Q13639 whole entry): as the sequence (Q13639 whole entry) above

NCCc1c[nH]c2ccc(C(N)=O)cc12 [5-CT, 5-carboxyamidotryptamine]
Ki [1, 12]: > 1000 nM
Ki [1, 13]: > 1000 nM
Ki ([1]; Kf values estimated, S10, [3H]5-HT displacement, low affinity compounds): > 1000 nM
EC50 [2]: 5570 nM
I. A. (intrinsic activity) [2]: 0.85
times less potent than 5-HT [2, 14]: ~200 fold
EC50 [3]: 1410 nM
I. A. (intrinsic activity) [3]: 1.2
fold lower affinity than 5-HT [3, 15]: about 30 fold
Ki [4]: > 10000 nM
Ki [5, 16]: > 10000 nM
Ki [6]: > 10000 nM

NCCc1c[nH]c2ccc(O)cc12 [5-HT, serotonin]
stimulation of basal cAMP release ([2]; CG-7, 1 μM, single dose preliminary study): about 30 fold
maximum cAMP release ([2]; CG-7, FIG. 9): 0.42±0.03 pmol/ml/10 min
I. A. (intrinsic activity) [2]: 1.0
stimulation of basal cAMP release ([3]; CG-8, 1 μM, single dose preliminary study): about 30 fold
maximum cAMP release ([3]; CG-8, FIG. 10): 0.57±0.04 pmol/ml/10 min
I. A. (intrinsic activity) [3]: 1.0
BH (percentage of high affinity sites) ([5]; CG-7, [3H]GR113808): 22%
nH (Hill coefficient) ([5]; CG-7, [3H]GR113808): nH = 0.62
BH (percentage of high affinity sites) ([6]; CG-8, [3H]GR113808): 24%
nH (Hill coefficient) ([6]; CG-8, [3H]GR113808): nH = 0.67

COc1ccc2[nH]cc(CCN)c2c1 [5-MeOT, 5-methoxytryptamine]
Ki [1, 12]: 27.5 ± 5 nM
Ki [1, 13]: 27 ± 5 nM
EC50 [2]: 21 ± 6 nM
I. A. (intrinsic activity) [2]: 1.0
times less potent than 5-HT [2, 14]: approximately equipotent
EC50 [3]: 31 ± 13 nM
I. A. (intrinsic activity) [3]: 1.0
fold lower affinity than 5-HT [3, 15]: approximately equipotent
Ki [4]: 71 nM
fold less potent at the human CG-17 ([4]; human CG-17 compared to the rat clones): approximately 3 fold
fold higher affinity for the human CG-17 clone [4]: ~5 fold
Ki ([5]; Affinity estimate K1, CG-7, 0.2-0.4 nM [3H]GR113808, single experiment): 438 nM
BH (percentage of high affinity sites) ([5]; CG-7, [3H]GR113808): 17%
nH (Hill coefficient) ([5]; CG-7, [3H]GR113808): nH = 0.57
Ki ([5]; KH (affinity for the high affinity state), CG-7, [3H]GR113808): 14 nM
Ki ([5]; read-out: KL (affinity for the low affinity state), CG-7, [3H]GR113808): 658 nM
Ki [6]: 518 nM
nH (Hill coefficient) ([6]; CG-8, [3H]GR113808): nH = 0.66

CCCN(CCC)C1CCc2cccc(O)c2C1 (centres unmarked) [8-OH-DPAT, 8-hydroxy-2-(di-n-propylamino)tetralin]
Ki [1]: > 1000 nM
Ki [1, 12]: > 1000 nM
Ki [4]: > 1000 nM
activity at the CG-17 clone [4]: inactive
effect on [3H]GR113808 binding [5]: no effect
effect on [3H]GR113808 binding [6]: no effect

COc1cc(N)c(Cl)cc1C(=O)NC1CCN(CCCOc2ccc(F)cc2)CC1OC (centres unmarked) [Cisapride, cisapride]
Ki [1, 12]: 10.9 ± 0.3 nM
Ki [1, 13]: 11 ± 0.3 nM
agonist / antagonist character [2]: partial agonists
I. A. (intrinsic activity) [2]: 1.2
times less potent than 5-HT [2, 14]: about 10 fold
EC50 [2, 17]: 191 ± 26 nM
agonist / antagonist character [3]: partial agonists
I. A. (intrinsic activity) [3]: 1.4
EC50 [3, 18]: 413 ± 199 nM
Ki [6, 19]: 84 nM
BH (percentage of high affinity sites) ([6]; CG-8, [3H]GR113808): 11%
nH (Hill coefficient) ([6]; CG-8, [3H]GR113808): nH = 0.83
Ki ([6]; CG-8, [3H]GR113808, read-out: KH (affinity for the high affinity state)): 2.7 nM
Ki ([6]; read-out: KL (affinity for the low affinity state), CG-8, [3H]GR113808): 105 nM

Cn1cc(C(=O)OCC2CCN(CCNS(C)(=O)=O)CC2)c2ccccc21 [GR113808]
affinity from functional receptor assays [7]: about 0.3 nM

CN1[C@@H]2CC[C@H]1C[C@@H](OC(=O)c1c[nH]c3ccccc13)C2 [ICS 205930]
Ki [1, 12]: 115 ± 12 nM
Ki [1, 13]: 115 ± 12 nM
fold lower affinity in the functional assay as compared to the binding experiments ([2]; CG-7): ~10 fold
agonist / antagonist character [2]: silent antagonist
I. A. (intrinsic activity) [2]: 0
Kd [2, 20]: 962 ± 244 nM
fold lower affinity in the functional assay as compared to the binding experiments ([3]; CG-8): approximately 6 fold
agonist / antagonist character [3]: silent antagonist
I. A. (intrinsic activity) [3]: 0
Kd [3, 20]: 607 ± 30 nM
Ki [8]: 138 ± 26 nM
Ki [6, 19]: 529 nM

O=C(c1ccc(F)cc1)C1CCN(CCn2c(=O)[nH]c3ccccc3c2=O)CC1 [Ketanserin, ketanserin]
Ki [1]: > 1000 nM
Ki [1, 12]: > 1000 nM
activity at the CG-17 clone [4]: inactive
Ki ([4]; read-out: Ki): > 1000 nM
effect on [3H]GR113808 binding [5]: no effect
effect on [3H]GR113808 binding [6]: no effect

CNS(=O)(=O)Cc1ccc2[nH]cc(CCN(C)C)c2c1 [Sumatriptan, sumatriptan]
Ki [1]: > 1000 nM
Ki [1, 12]: > 1000 nM
activity at the CG-17 clone [4]: inactive
Ki ([4]; read-out: Ki): > 1000 nM
effect on [3H]GR113808 binding [5]: no effect
effect on [3H]GR113808 binding [6]: no effect

Cn1cc(C(=O)OCC2CCN(CCNS(C)(=O)=O)CC2)c2ccccc21 [[^3H]GR113808]
Kd [9]: 0.13 to 0.2 nM
Kd [10]: 0.2 nM
Kd [11]: 0.23 to 0.37 nM

CCN(CC)C(=O)[C@@H]1C=C2c3cccc4[nH]cc(c34)C[C@H]2N(C)C1 [d-LSD]
Ki [5, 16]: > 10000 nM
Ki [6, 19]: > 10000 nM

CSc1ccc2c(c1)C(N1CCN(C)CC1)Cc1ccccc1S2 (centres unmarked) [methiothepin]
effect on responses to 5-HT [2]: not affected
effect on responses to 5-HT [3]: not affected

O=C(CCCN1CCC2(CC1)C(=O)NCN2c1ccccc1)c1ccc(F)cc1 [spiperone]
effect on responses to 5-HT [2]: not affected
effect on responses to 5-HT [3]: not affected

CC(N)Cc1c[nH]c2ccc(O)cc12 (stereo not drawn) [α-Me-5-HT]
I. A. (intrinsic activity) [2]: 0.90
times less potent than 5-HT [2, 14]: about 10 fold
EC50 [2, 17]: 250 ± 91 nM
I. A. (intrinsic activity) [3]: 1.0
fold lower affinity than 5-HT [3, 15]: approximately 20 fold
EC50 [3, 18]: 1040 nM
Ki ([4]; human CG-17, 10 nM [3H]5-HT, single experiment, >1,000 from one point displacement at 1 μM, read-out: Ki): 1.6 nM
fold higher affinity for the human CG-17 clone [4]: approximately 100 fold
Ki [5, 16]: 2260 nM
Ki [6, 19]: 1860 nM
